Test results reported in patent publication US20250270213A1, “PI3Ka INHIBITORS” (Synnovation Therapeutics, Inc., priority 2022, published 2025).

System: T47D (PIK3CA H1047R) cells
Assay: pS473 AKT assay with 2.5% FBS, T47D cells
Type: cell-based
Conditions: Homo sapiens, pSer473 AKT, DMEM with 2.5% FBS, 2 h treatment, read-out: T47D_IC50
Protocol: Example B. pS473 AKT Assay Protocol with 2.5% FBS
T47D (PIK3CA H1047R) cells were cultured using 10-cm petri dishes with recommended medium plus 10% fetal bovine serum. One day before the assay, cells were seeded in 96-well plates. After overnight incubation, the medium was changed to DMEM with 2.5% fetal bovine serum (FBS) and the cells were treated with different concentrations of the compounds for 2 h. Cells were then fixed using 4% paraformaldehyde at room temperature for 20 min. Aspirate 4% paraformaldehyde, and wash cells using 1× regular phosphate buffered saline 3 times, 5 min each. Aspirate any residual phosphate buffered saline and block cells using 10% goat serum containing 1% bovine serum albumin and 0.3% Triton X-100 at room temperature for 1 h. Without any additional washing, primary antibodies (rabbit anti-pSer473 AKT) were diluted using blocking buffer and added at a final volume of 50 microliter per well. Keep assay plates with primary antibodies overnight at 4° C. Wash cells using 1× regular phosphate buffered saline 3 times, 5 min each. After the final wash, incubate cells with horseradish peroxidase-conjugated secondary antibodies (goat Anti-rabbit IgG) diluted using the same blocking buffer at room temperature for 1 h. Wash cells thoroughly using 1× regular phosphate buffered saline 3 times, 5 min each. Aspirate any residual phosphate buffered saline. Add Super-Signal ELISA Pico Chemiluminescent Substrate at a final volume of 100 microliter per well. Read plates on i3x Multi-Mode Microplate Reader and calculate IC50 values using GraphPad Prism software.

SMILES	IC50 [µM]
Cc1cc(C(C)Nc2ccc(Cl)nc2-c2ncn(C)n2)c2c(c1)c(=O)n(C)c1c2cnn1C1CN(C2CC2)C1 (stereo not shown) [Compound 90, 9-(1-((6-chloro-2-(1-methyl-1H-1,2,4-triazol-3-yl)pyridin-3-yl)amino)ethyl)-3-(1-cyclopropylazetidin-3-yl)-4,7-dimethyl-3,4-dihydro-5H-pyrazolo[3,4-c]isoquinolin-5-one]	< 1
Cc1cc(C(C)Nc2ccc(Cl)nc2-c2ncn(C)n2)c2c(c1)c(=O)n(C)c1c2cnn1C1CN(C[C@H](C)O)C1 (stereo partly drawn) [Compound 91, 9-(1-((6-chloro-2-(1-methyl-1H-1,2,4-triazol-3-yl)pyridin-3-yl)amino)ethyl)-3-(1-((S)-2-hydroxypropyl)azetidin-3-yl)-4,7-dimethyl-3,4-dihydro-5H-pyrazolo[3,4-c]isoquinolin-5-one]	< 1
Cc1cc(C(C)Nc2ccc(Cl)nc2-c2ncn(C)n2)c2c(c1)c(=O)n(C)c1c2cnn1C1CN(CC(C)(C)O)C1 (stereo not shown) [Compound 93, 9-(1-((6-chloro-2-(1-methyl-1H-1,2,4-triazol-3-yl)pyridin-3-yl)amino)ethyl)-3-(1-(2-hydroxy-2-methylpropyl)azetidin-3-yl)-4,7-dimethyl-3,4-dihydro-5H-pyrazolo[3,4-c]isoquinolin-5-one]	< 1
Cc1cc(C(C)Nc2ccc(Cl)nc2-c2ncn(C)n2)c2c(c1)c(=O)n(C)c1c2cnn1C1CN(CC(F)F)C1 (stereo not shown) [Compound 94, 9-(1-((6-chloro-2-(1-methyl-1H-1,2,4-triazol-3-yl)pyridin-3-yl)amino)ethyl)-3-(1-(2,2-difluoroethyl)azetidin-3-yl)-4,7-dimethyl-3,4-dihydro-5H-pyrazolo[3,4-c]isoquinolin-5-one]	< 1
Cc1cc(C(C)Nc2ccc(Cl)nc2-c2ncn(C)n2)c2c(c1)c(=O)n(C)c1c2cnn1C1CN(CC#N)C1 (stereo not shown) [Compound 95, 2-(3-(9-(1-((6-chloro-2-(1-methyl-1H-1,2,4-triazol-3-yl)pyridin-3-yl)amino)ethyl)-4,7-dimethyl-5-oxo-4,5-dihydro-3H-pyrazolo[3,4-c]isoquinolin-3-yl)azetidin-1-yl)acetonitrile]	< 1
Cc1cc(C(C)Nc2ccc(Cl)nc2-c2ncn(C)n2)c2c(c1)c(=O)n(C)c1c2cnn1C1CN(CCC#N)C1 (stereo not shown) [Compound 96, 3-(3-(9-(1-((6-chloro-2-(1-methyl-1H-1,2,4-triazol-3-yl)pyridin-3-yl)amino)ethyl)-4,7-dimethyl-5-oxo-4,5-dihydro-3H-pyrazolo[3,4-c]isoquinolin-3-yl)azetidin-1-yl)propanenitrile]	< 1
CC(=O)N1CC(n2ncc3c4c(C(C)Nc5ccc(Cl)nc5-c5ncn(CCO)n5)cc(C)cc4c(=O)n(C)c32)C1 (stereo not shown) [Compound 102, 3-(1-acetylazetidin-3-yl)-9-(1-((6-chloro-2-(1-(2-hydroxyethyl)-1H-1,2,4-triazol-3-yl)pyridin-3-yl)amino)ethyl)-4,7-dimethyl-3,4-dihydro-5H-pyrazolo[3,4-c]isoquinolin-5-one]	1 to 5
Cc1cc(C(C)Nc2ccc(Cl)nc2-c2ncn(C)n2)c2c(c1)c(=O)n(C)c1c2cnn1C1CN(C(=O)CO)C1 (stereo not shown) [Compound 103, 9-(1-((6-Chloro-2-(1-methyl-1H-1,2,4-triazol-3-yl)pyridin-3-yl)amino)ethyl)-3-(1-(2-hydroxyacetyl)azetidin-3-yl)-4,7-dimethyl-3,4-dihydro-5H-pyrazolo[3,4-c]isoquinolin-5-one]	< 1
Cc1cc(C(C)Nc2ccc(Cl)nc2-c2ncn(C)n2)c2c(c1)c(=O)n(C)c1c2cnn1C1CN(C(=O)CN(C)C)C1 (stereo not shown) [Compound 104, 9-(1-((6-Chloro-2-(1-methyl-1H-1,2,4-triazol-3-yl)pyridin-3-yl)amino)ethyl)-3-(1-(dimethylglycyl)azetidin-3-yl)-4,7-dimethyl-3,4-dihydro-5H-pyrazolo[3,4-c]isoquinolin-5-one]	< 1
[2H]C([2H])([2H])n1c(=O)c2cc(C)cc(C(C)Nc3ccc(Cl)nc3-c3ncn(C)n3)c2c2cnn([C@H]3CCN(C)C3)c21 (stereo partly drawn) [Compound 105, 9-(1-((6-Chloro-2-(1-methyl-1H-1,2,4-triazol-3-yl)pyridin-3-yl)amino)ethyl)-7-methyl-4-(methyl-d3)-3-((S)-1-methylpyrrolidin-3-yl)-3,4-dihydro-5H-pyrazolo[3,4-c]isoquinolin-5-one]	< 1
Cc1cc(C(C)Nc2ccc(Cl)nc2-c2cnn(C)c2)c2c(c1)c(=O)n(C)c1c2cnn1CC1CCN(CC(F)F)CC1 (stereo not shown) [Compound 106, 9-(1-((6-Chloro-2-(1-methyl-1H-pyrazol-4-yl)pyridin-3-yl)amino)ethyl)-3-((1-(2,2-difluoroethyl)piperidin-4-yl)methyl)-4,7-dimethyl-3,4-dihydro-5H-pyrazolo[3,4-c]isoquinolin-5-one]	< 1
CC(=O)N1CCC(Cn2ncc3c4c(C(C)Nc5ccc(Cl)nc5-c5cnn(C)c5)cc(C)cc4c(=O)n(C)c32)CC1 (stereo not shown) [Compound 107, 3-((1-acetylpiperidin-4-yl)methyl)-9-(1-((6-chloro-2-(1-methyl-1H-pyrazol-4-yl)pyridin-3-yl)amino)ethyl)-4,7-dimethyl-3,4-dihydro-5H-pyrazolo[3,4-c]isoquinolin-5-one]	< 1

The remaining lines, values ahead:

IC50 [µM]	SMILES
< 1	CNC(=O)c1ccc(-c2cc(Cl)ccc2NC(C)c2cc(C)cc3c(=O)n(C)c4c(cnn4C4CN(C)C4)c23)cn1 (stereo not shown) [Compound 86, 5-(5-chloro-2-((1-(4,7-dimethyl-3-(1-methylazetidin-3-yl)-5-oxo-4,5-dihydro-3H-pyrazolo[3,4-c]isoquinolin-9-yl)ethyl)amino)phenyl)-N-methylpicolinamide]
< 1	Cc1cc(C(C)Nc2ccc(Cl)nc2-c2ccc3c(c2)CN(C)C3=O)c2c(c1)c(=O)n(C)c1c2cnn1C1CN(C)C1 (stereo not shown) [Compound 87, 9-(1-((6-chloro-2-(2-methyl-1-oxoisoindolin-5-yl)pyridin-3-yl)amino)ethyl)-4,7-dimethyl-3-(1-methylazetidin-3-yl)-3,4-dihydro-5H-pyrazolo[3,4-c]isoquinolin-5-one]
< 1	Cc1cc(C(C)Nc2ccc(Cl)nc2-c2ccc3c(cnn3C)c2)c2c(c1)c(=O)n(C)c1c2cnn1C1CN(C)C1 (stereo not shown) [Compound 88, 9-(1-((6-chloro-2-(1-methyl-1H-indazol-5-yl)pyridin-3-yl)amino)ethyl)-4,7-dimethyl-3-(1-methylazetidin-3-yl)-3,4-dihydro-5H-pyrazolo[3,4-c]isoquinolin-5-one]
< 1	Cc1cc(C(C)Nc2ccc(Cl)nc2-c2ncn(C)n2)c2c(c1)c(=O)n(C)c1c2cnn1C1CN(CCO)C1 (stereo not shown) [Compound 89, 9-(1-((6-chloro-2-(1-methyl-1H-1,2,4-triazol-3-yl)pyridin-3-yl)amino)ethyl)-3-(1-(2-hydroxyethyl)azetidin-3-yl)-4,7-dimethyl-3,4-dihydro-5H-pyrazolo[3,4-c]isoquinolin-5-one]
< 1	Cc1cc(C(C)Nc2ccc(Cl)nc2-c2ncn(C)n2)c2c(c1)c(=O)n(C)c1c2cnn1C1CN(C[C@@H](C)O)C1 (stereo partly drawn) [Compound 92, 9-(1-((6-chloro-2-(1-methyl-1H-1,2,4-triazol-3-yl)pyridin-3-yl)amino)ethyl)-3-(1-((R)-2-hydroxypropyl)azetidin-3-yl)-4,7-dimethyl-3,4-dihydro-5H-pyrazolo[3,4-c]isoquinolin-5-one]
< 1	CC(=O)N1CC(n2ncc3c4c(C(C)Nc5ccc(Cl)nc5-c5ncn(C)n5)cc(C)cc4c(=O)n(C)c32)C1 (stereo not shown) [Compound 97, 3-(1-Acetylazetidin-3-yl)-9-(1-((6-chloro-2-(1-methyl-1H-1,2,4-triazol-3-yl)pyridin-3-yl)amino)ethyl)-4,7-dimethyl-3,4-dihydro-5H-pyrazolo[3,4-c]isoquinolin-5-one]
< 1	COC(=O)N1CC(n2ncc3c4c(C(C)Nc5ccc(Cl)nc5-c5ncn(C)n5)cc(C)cc4c(=O)n(C)c32)C1 (stereo not shown) [Compound 98, methyl 3-(9-(1-((6-chloro-2-(1-methyl-1H-1,2,4-triazol-3-yl)pyridin-3-yl)amino)ethyl)-4,7-dimethyl-5-oxo-4,5-dihydro-3H-pyrazolo[3,4-c]isoquinolin-3-yl)azetidine-1-carboxylate]
< 1	Cc1cc(C(C)Nc2ccc(Cl)nc2-c2ncn(C)n2)c2c(c1)c(=O)n(C)c1c2cnn1C1CN(S(C)(=O)=O)C1 (stereo not shown) [Compound 99, 9-(1-((6-chloro-2-(1-methyl-1H-1,2,4-triazol-3-yl)pyridin-3-yl)amino)ethyl)-4,7-dimethyl-3-(1-(methylsulfonyl)azetidin-3-yl)-3,4-dihydro-5H-pyrazolo[3,4-c]isoquinolin-5-one]
< 1	CC(=O)N1CC(n2ncc3c4c(C(C)Nc5ccc(Cl)nc5-c5ccc(=O)n(C)c5)cc(C)cc4c(=O)n(C)c32)C1 (stereo not shown) [Compound 100, 3-(1-Acetylazetidin-3-yl)-9-(1-((6-chloro-1′-methyl-6′-oxo-1′,6′-dihydro-[2,3′-bipyridin]-3-yl)amino)ethyl)-4,7-dimethyl-3,4-dihydro-5H-pyrazolo[3,4-c]isoquinolin-5-one]
< 1	CNC(=O)c1ccc(-c2nc(Cl)ccc2NC(C)c2cc(C)cc3c(=O)n(C)c4c(cnn4C4CN(C(C)=O)C4)c23)cn1 (stereo not shown) [Compound 101, 3-((1-(3-(1-acetylazetidin-3-yl)-4,7-dimethyl-5-oxo-4,5-dihydro-3H-pyrazolo[3,4-c]isoquinolin-9-yl)ethyl)amino)-6-chloro-N-methyl-[2,3′-bipyridine]-6′-carboxamide]
